Source: US20220380371A1, “MLL1 INHIBITORS AND ANTI-CANCER AGENTS” (NOVARTIS AG, priority 2019, published 2022)

Experiments:
H3K4me3 in MV4-11 cells = assay: MV4-11 H3K4me3 Cellular ELISA Assay; format: cell-based; settings: Homo sapiens, MV4-11, 48 h
Procedure: MV4-11 H3K4me3 Cellular ELISA Assay
MV4-11 (ATCC® CRL-9591™) was cultured with RPMI1640 medium (Thermo Fisher Scientific, cat #11875) supplemented with 10% FBS (Thermo Fisher Scientific, cat #10099141) and 50 U/ml Penicillin-Streptomycin (Thermo Fisher Scientific, cat #10378016) in humidified incubator at 37° C., 5% CO2.
200 nL compounds dissolved in DMSO were serially diluted at 1:3 ratio for 12 points starting from 10 mM and dispensed into each wells of cell culture plates (PDL-coated ViewPlate-384 Black, FTC, PerkinElmer, #6007710). 3,750 MV4-11 cells in 40 μL culture medium were seeded into each well and treated with desired concentration for 48 hours. After treatment, wash cells with cold phosphate based buffer (PBS, pH 7.4) and aspirate the remaining PBS buffer. Crude histone lysate was extracted by 40 μL 0.5M HCl for 1 hour in 4° C. following neutralization by adding 32 μL neutralization buffer (0.5M Sodium phosphate dibasic, pH ˜12.5, 1.25 mM Dithiothreitol, Promega #V3151, Protease Inhibitor Cocktail, Sigma #8340) for each well. 5 μL and 20 μL of histone lysate was loaded to ELISA plate (384 Well Plates, PE HB, White, 6005620) for detection of total H3 and H3K4me3, respectively. Shake the plates gently in 4° C. for overnight. After histone binding, plates were washed with 80 μL PBS/T (PBS with 0.05% Tween-20) and blocked with 50 μL 3% BSA diluted in PBS/T per well for 1 hour. Incubate wells with primary antibody for 1 hour at room temperature using anti-H3K4me3 (CST #9727) and anti-total H3 (CST #9715) diluted 1:2000 in 3% BSA. Plates were then washed with PBS/T for 3 times and incubated with horseradish peroxidase (HRP) conjugated secondary antibody (CST #7074, 1:5000) for 1 hour at room temperature. The abundance of H3K4me3 and total H3 were measured by ECL substrates chemiluminescence (Pierce, #34080) on a plate reader (PerkinElmer EnVison 2104 Mutilable Reader). Percentage inhibition was calculated against DMSO control after normalization of H3K4me3 signal to H3 signal for individual samples. The data were then fit to a dose response curve using GraphPad Prism for IC50 calculation.

MV4-11 cells = assay: MV4-11 6-Day Cell Growth CTG (CellTiter-Glo) Assay; format: cell-based; settings: Homo sapiens, MV4-11, 144 h, MV4-11 cell growth CellTiter-Glo, 6 days
Procedure: MV4-11 6-Day Cell Growth CTG (CellTiter-Glo) Assay
Acute myeloid leukemia cell MV4-11 (ATCC® CRL-9591™) was cultured with RPMI 1640 medium (Thermo Fisher Scientific, cat #11875) supplemented with 10% FBS (Thermo Fisher Scientific, cat #10099141) in humidified incubator at 37° C., 5% CO2. To assess the effect of MLL1 inhibition on cell growth, the compound of the present invention was dissolved in DMSO and serially diluted at 1:3 for 12 points starting from 10 mM then 200 nL for the replicate of each dose per well was dispensed to Viewplate-384 Black (Perkin Elmer). Exponentially growing MV4-11 cells were seeded at the density of 300 cells per well in 40 μL to the plate, so the final compound working concentration starts from 50 μM. After 6 days, 40 μL CellTiter-Glo (Promega, cat #G7573) was added into the cell culture well and luminescence was read with Envision (Perkin Elmer) to determine the viable cells. The percentage inhibition was calculated against the samples treated with DMSO only and the data were used for dose response curve fitting in GraphPad Prism to get the IC50 of representative compound of present invention, which reflects the inhibition of MLL1 activity.

[1] = target: wild type MLL1 four-member complex (MLL1-4C) (Homo sapiens, UniProt Q03164); assay: MLL1 LC-MS Assay; format: biochemical; settings: read-out: LCMS
Procedure: The compounds of the present disclosure were serially and separately diluted 3-fold in DMSO to obtain a total of eight or twelve concentrations. Then the test compounds at each concentration (120 nL of each) were transferred by Mosquito into white Proxiplate plus 384-well microplate (PerkinElmer). Solutions (6 μL) of 60 nM wild type MLL1 four-member complex (MLL1-4C) and 5 μM SAM in the reaction buffer (20 mM Tris-HCl, pH 8.0, 0.01% Tween 20, 1 mM DTT, 10 mM MgCl2, 0.01% BSA) were added to the wells that were then incubated with the test compound for 20 min. A 6 μL solution of 20 μM of the peptide substrate H3K4me0 (histone H3[1-21]-Biotin) in the reaction buffer was added to initiate each reaction. The final components in the reaction solution include 30 nM MLL1-4C, 2.5 μM SAM, and 10 μM H3K4me0 with varying concentration of the compounds. A positive control consisted of 30 nM MLL1-4C, 2.5 μM SAM, and 10 μM substrate in the absence of the test compound, and a negative control consisted of 2.5 μM SAM, and 10 μM substrate only. Each reaction was incubated at rt for 120 min, then stopped by addition of 3 μL per of quench solution (2.5% TFA with 320 nM d4-SAH). The reaction mixture was centrifuged (Eppendorf centrifuge 5810, Rotor A-4-62) for 2 min at 2000 rpm. The SAH production from the enzymatic assays were monitored by LC-MS/MS on an API 4000 triple quadrupole mass spec with Turbolon Spray (Applied Biosystem) coupled with Prominenece UFLC (Shimazu). The level of SAH production were then normalized based on the values coming from the positive and negative controls to give percent enzyme activities. The data were then fit to a dose response equation using the program Helios (Novartis) to get the IC50 values of the test compounds.

Compound	IC50 (H3K4me3 in MV4-11 cells) [µM]	IC50 (MV4-11 cells) [µM]	IC50 [1] [µM]
Nc1ncnc2c1ncn2Cc1c(Br)cc(Cl)cc1N1CC[C@](N)(c2nnn[nH]2)C1 [Example 83, (R)-9-(2-(3-amino-3-(1H-tetrazol-5-yl)pyrrolidin-1-yl)-6-bromo-4-chlorobenzyl)-9H-purin-6-amine]	< 1.9	< 2	< 0.05
CCc1cc(-c2ccccc2F)cc(N2CC[C@](N)(C(=O)NC3CC3)C2)c1Cn1cnc2c(N)ncnc21 [Example 92, (R)-3-amino-1-(4-((6-amino-9H-purin-9-yl)methyl)-5-ethyl-2′-fluoro-[1,1′-biphenyl]-3-yl)-N-cyclopropylpyrrolidine-3-carboxamide]	< 1.9	< 2	< 0.05
Nc1ncnc2c1ncn2Cc1c(N2CC[C@](N)(C(=O)NC3CC3)C2)cc(-c2cccs2)cc1C(F)(F)F [Example 94]	< 1.9	< 2	< 0.05
CCc1cc(-c2cccnc2)cc(N2CC[C@](N)(C(=O)NC3CC3)C2)c1Cn1cnc2c(N)ncnc21 [Example 95]	< 1.9	< 2	< 0.05
CCc1cc(-c2cscn2)cc(N2CC[C@](N)(C(=O)NC3CC3)C2)c1Cn1cnc2c(N)ncnc21 [Example 98, (R)-3-amino-1-(2-((6-amino-9H-purin-9-yl)methyl)-3-ethyl-5-(thiazol-4-yl)phenyl)-N-cyclopropylpyrrolidine-3-carboxamide]	< 1.9	< 2	0.05 to 0.1
CCc1cc(-c2cnccn2)cc(N2CC[C@](N)(C(=O)NC3CC3)C2)c1Cn1cnc2c(N)ncnc21 [Example 100, (R)-3-amino-1-(2-((6-amino-9H-purin-9-yl)methyl)-3-ethyl-5-(pyrazin-2-yl)phenyl)-N-cyclopropylpyrrolidine-3-carboxamide]	< 1.9	< 2	< 0.05
Nc1ncnc2c1ncn2Cc1c(N2CC[C@](N)(C(=O)NC3CC3)C2)cc(CN2CCOCC2)c(F)c1Cl [Example 103, (R)-3-amino-1-(2-((6-amino-9H-purin-9-yl)methyl)-3-chloro-4-fluoro-5-(morpholinomethyl)phenyl)-N-cyclopropylpyrrolidine-3-carboxamide]	< 1.9	< 2	< 0.05
N#Cc1c(Cl)ccc(N2CC[C@](N)(C(=O)NC3CC3)C2)c1Cn1cnc2c(N)ncnc21 [Example 104]	< 1.9	< 2	< 0.05
Nc1ncnc2c1ncn2Cc1c(N2CC[C@](N)(C(=O)NC3CC3)C2)cc(Cl)c(Cl)c1CN1CCOCC1 [Example 105]	< 1.9	< 2	< 0.05
CCc1cc(Cl)cc(N2CC[C@](N)(CO)C2)c1Cn1cnc2c(N)ncnc21 [Example 108]	< 1.9	< 2	< 0.05
COC[C@@]1(N)CCN(c2ccc3ccccc3c2Cn2cnc3c(N)ncnc32)C1 [Example 109]	< 1.9	< 2	0.05 to 0.1
Nc1ncnc2c1ncn2Cc1c(I)c(F)c2c(c1N1CC[C@](N)(C(=O)NC3CC3)C1)OCC2 [Example 111]	1.9 to 3	2 to 3	< 0.05
CCSc1c(Cl)ccc(N2CC[C@](N)(C(=O)NC3CC3)C2)c1Cn1cnc2c(N)ncnc21 [Example 113]	< 1.9	< 2	< 0.05
Nc1ncnc2c1ncn2Cc1c(N2CC[C@](N)(C(=O)NCc3cccnc3O)C2)ccc(F)c1C(F)(F)F [Example 120]	< 1.9	< 2	0.05 to 0.1
Nc1ncnc2c1ncn2Cc1c(N2CC[C@](N)(C(=O)NCCc3c[nH]cn3)C2)ccc(F)c1C(F)(F)F [Example 121]	< 1.9	< 2	< 0.05
Nc1ncnc2c1ncn2Cc1c(N2CC[C@](N)(C(=O)NCC3CC3(F)F)C2)ccc(F)c1C(F)(F)F (stereo partly drawn) [Example 122]	< 1.9	< 2	< 0.05
